The values below come from PMC4486022 (Cell reports, 2014).

What is called IC50 is the midpoint of a concentration-inhibition curve.

Assay [1] has as its target T1, yIre1 (recombinant yeast IRE1) (Saccharomyces cerevisiae, UniProt P32361).
T1 sequence (P32361 641-1115 limits assumed): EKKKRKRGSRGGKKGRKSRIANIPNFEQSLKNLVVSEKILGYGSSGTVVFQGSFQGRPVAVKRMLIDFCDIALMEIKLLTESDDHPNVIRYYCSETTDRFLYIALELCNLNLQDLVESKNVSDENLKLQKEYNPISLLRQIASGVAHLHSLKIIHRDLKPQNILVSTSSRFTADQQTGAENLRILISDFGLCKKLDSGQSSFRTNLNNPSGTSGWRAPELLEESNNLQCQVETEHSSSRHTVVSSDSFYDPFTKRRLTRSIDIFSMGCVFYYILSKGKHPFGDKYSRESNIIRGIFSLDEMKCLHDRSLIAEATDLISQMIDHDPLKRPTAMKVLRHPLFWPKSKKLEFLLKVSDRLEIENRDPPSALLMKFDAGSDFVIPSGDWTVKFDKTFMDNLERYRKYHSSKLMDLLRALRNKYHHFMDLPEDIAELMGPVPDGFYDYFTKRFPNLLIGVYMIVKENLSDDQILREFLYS
Nature of the assay: in vitro RNase assay, HAC1 and BLOS1 RNA cleavage. Conditions: activator, 100 μM, 1 μM yIre1; Q site at kinase/RNase interface. Format: biochemical.

The target of assay [2] is T1, yIre1 (recombinant yeast IRE1). Put plainly: in vitro RNase assay, radiolabeled HAC1 RNA cleavage. Format: biochemical.

Regarding `O=c1c(O)c(-c2ccc(O)c(O)c2)oc2cc(O)cc(O)c12` [quercetin], the “in vitro RNase assay, HAC1 and BLOS1 RNA cleavage (activation)” value in assay [1] is “binding of Q to Ire1 was sufficient to promote cleavage of RIDD substrate RNA”.

Consider `O=S(=O)(N=Cc1c(O)ccc2ccccc12)c1cccs1` [STF-083010], for which the 50% inhibitory concentration (IC50) in assay [2] was ~30 µM.
